The test system of one assay is glioblastoma. Briefly: Glioblastoma model, survival. The class given is in vivo. The conditions noted are these: day 100 after tumor inoculation, same dose and schedule.
Assay [1] deals with Mycobacterium tuberculosis strain H37Rv (ATCC 27294). Briefly: Tuberculosis model in BALB/c mice. It counts as in vivo. As to conditions: for Survival rate, % D14: day 14; for Survival rate, % D28 / Bacterial count in lungs, log CFU D28: day 28; for Bacterial count in lungs, log CFU D28: 10.06 ± 0.304 at D1.
A further assay deals with MAC. The conditions noted are these: 100 mg/kg IM five days a week for four weeks; cited from earlier work.
For another assay, the system named is E. coli ATCC 25922. Briefly: Sepsis (septicemia) model in mice. It counts as in vivo. As for the experimental part: Sepsis (septicemia) model: Escherichia coli O157 was chosen as a model infection being one of the most common nosocomial pathogens. Female BALB/C mice were infected by the intraperitoneal injection of 2.5×10^8 cells (LD90). Treatment started 2 hours post bacterial inoculation
E. coli ATCC 25922 was stored at −80° C. until use in this study. The bacterium was transferred onto Trypticase Soy Agar (TSA) plates and incubated for 18 h at 37° C. A suspension of the bacterium was prepared in PBS and added to sterile 5% hog mucin. An aliquot of the suspension was added to 5% hog gastric mucin to obtain the required concentration of inoculum (3.5×10^6 CFU/mL). Each mouse was inoculated with 0.5 mL of the appropriate inoculum preparation by IP injection. 2 hours later mice were treated with a single injection of the appropriate concentration of Gentamicin sulfate in dose 10 mg/kg (calculated by base).

Where [2] appears, read: BALB/c mice, 100 mg/kg IP 2/week, cumulative 800 mg/kg SM base.
[3] abbreviates: BALB/c mice, 200 mg/kg IP 5/week, cumulative 4000 mg/kg SM base.

This is an account of results in patent publication US20090061009A1, “Composition and Method of Treatment of Bacterial Infections” (priority 2007, published 2009).

Where a name gives a salt, the structure may show the parent alone.

In the case of `COc1cccc2c1C(=O)c1c(O)c3c(c(O)c1C2=O)C[C@@](O)(C(=O)CO)C[C@@H]3O[C@H]1C[C@H](N)[C@H](O)[C@H](C)O1` [Doxorubicin in solution, Doxorubicin], in the assay on glioblastoma, the survival rate stood at 0%.
Regarding `[H]/N=C(/N)N[C@H]1[C@H](O)[C@@H](O)[C@H](O[C@@H]2O[C@@H](C)[C@](O)(C=O)[C@H]2O[C@@H]2O[C@@H](CO)[C@H](O)[C@@H](O)[C@@H]2NC)[C@@H](N/C(N)=N\[H])[C@@H]1O` [SM USP solution, Streptomycin sulfate], the survival rate in assay [1] (800 mg cumulative dose of SM) is given as 58%; in assay [1] (positive control, cumulative 4000 mg SM), 92%. The “Survival rate, % D14” value in assay [1] (setting [2]) is reported as 83%; in assay [1] (setting [3]) it was 92%. Also, the “Survival rate, % D28” value in assay [1] (setting [2]) is recorded as 58%; in assay [1] (setting [3]) it was 92%. The “Bacterial count in lungs, log CFU D28” value was found to be 8.37 ± 0.367 log CFU in assay [1] (BALB/c mice, 100 mg/kg IP 2/week) and 7.57 ± 0.268 log CFU in assay [1] (BALB/c mice, 200 mg/kg IP 5/week). Besides, the “Bacterial count in lungs, log CFU D56” value in assay [1] (BALB/c mice, 200 mg/kg IP 5/week for 28 days, day 56) came to 8.86 ± 0.18 log CFU.
In the case of `[H]/N=C(/N)N[C@H]1[C@H](O)[C@@H](O)[C@H](O[C@@H]2O[C@@H](C)[C@](O)(C=O)[C@H]2O[C@@H]2O[C@@H](CO)[C@H](O)[C@@H](O)[C@@H]2NC)[C@@H](N/C(N)=N\[H])[C@@H]1O` [Streptomycin], in the assay with MAC, the “bacterial counts of MAC from spleen, lungs and liver” value is recorded as “significant reduction”.
Take “Gentamicin sulfate [Gentamicin sulfate solution]”: in the assay on E. coli ATCC 25922 (10 mg/kg single injection, day 2), the “Day of death after inoculation: 2 (number of deaths)” value turned out to be 3. The “Day of death after inoculation: 3 (number of deaths)” value in the assay on E. coli ATCC 25922 (10 mg/kg single injection, day 3) turned out to be 1. The “Day of death after inoculation: 4 (number of deaths)” value in the assay on E. coli ATCC 25922 (10 mg/kg single injection, day 4) is 1. Also, in the assay with E. coli ATCC 25922 (E.Coli induced septicemia in mice, untreated 11%), the Survival rates was found to be 50%. In the assay on E. coli ATCC 25922 (mice, 1.8 × 10^6 E. coli per mouse IP, single injection 10 mg/kg (as base) 2 hours later, observed six days), the “No. dead/No. treated” value is given as 5/10.
